In patent publication US20020137929A1, “1 - (3-heterocyclylphenyl) isothiourea, -isourea, -guanidine and -amidine herbicidal agents” (Intellectual Property Department, BASF Aktiengesellschaft, priority 1998, published 2002):

What was measured:
[1] = system: TRZAWR (Wheat, Winter, cv Riband); assay: Preemergence herbicidal evaluation; type: in vivo, Triticum aestivum; settings: rated 4-5 weeks after treatment
In short: (§1)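 Steps: mix seeds into potting soil; plant atop ~1 inch soil; spray compound in aqueous acetone (~0.0156-0.500 kg/ha equivalent); maintain in greenhouse with watering; rate visually 0-9 versus control at 4-5 weeks.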

[2] = system: GLXMAW (Soybean, Williams); assay: Preemergence herbicidal evaluation; type: in vivo, Glycine max, (L.) Merr. cv Williams; settings: rated 4-5 weeks after treatment
In short: as §1

CASOB (Sicklepod) = assay: Postemergence herbicidal evaluation; type: in vivo, Cassia obtusifolia; settings: postemergence
In short: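 First, seedlings were raised for around two weeks. Next, test material in 50/50 acetone/water containing 0.5% TWEEN 20 was sprayed through a nozzle at 40 psi, equivalent to about 0.0156–0.500 kg/ha. Finally, after 4–5 weeks in the greenhouse, plants were rated 0–9.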

MOOVA (Monochoria) = assay: Postemergence weed control under flooded paddy conditions; type: in vivo, Monochoria vaginalis; settings: postemergence weeds
In short: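 Herbicidal effect is judged by eye on a 0–9 scale versus control, 3–4 weeks after dosing. Dosing is into flood water kept 1.5–3 cm over the soil, at about 0.0313–0.500 kg/ha in aqueous/acetone 50/50 v/v, on 3–5 cm weeds and 1.5–2.5-leaf rice seedlings.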

[3] = system: SAGPY (Arrowhead (Pygmaea)); assay: Preemergence weed control under flooded paddy conditions; type: in vivo, Sagittaria pygmaea; settings: rated 3-4 weeks after treatment
In short: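 Greenhouse paddy assay. Acetone/water (50/50 v/v) solutions dosed into flood water, equivalent to about 0.0313 to 0.500 kg/ha active ingredient, over seeds planted 0.5 cm deep in silt loam. Score: 0-9 visual, based on stand, vigor, malformation, size and chlorosis, 3 to 4 weeks after treatment.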

ORYSAT (Rice, Tebonnet) = assay: Preemergence herbicidal evaluation; type: in vivo, Oryza sativa, (L.) Tebonnet; settings: rated 4-5 weeks after treatment
In short: as §1

## CCOC(=O)CN1C(=O)C(CC(=O)Nc2ccccc2)SC1=Nc1cc(-n2c(=O)cc(C(F)(F)F)n(C)c2=O)c(F)cc1Cl (centres unmarked) [Compound 68, Ethyl 2-{{2-chloro-5-[3,6-dihydro-3-methyl-2,6-dioxo-4-(trifluoromethyl)-1(2H)-pyrimidinyl]-4-fluorophenyl}imino}-4-oxo-5-[(phenylcarbamoyl)-methyl]-3-thiazolidineacetate]
[1]; rate 0.0156 kg/ha
  Preemergence herbicidal rating TRZAWR: 0.0
[1]; rate 0.0313 kg/ha
  Preemergence herbicidal rating TRZAWR: 0.0
[1]; rate 0.0625 kg/ha
  Preemergence herbicidal rating TRZAWR: 0.0
[1]; rate 0.1250 kg/ha
  Preemergence herbicidal rating TRZAWR: 0.0
[1]; rate 0.2500 kg/ha
  Preemergence herbicidal rating TRZAWR: 1.0
[2]; rate 0.0156 kg/ha
  Preemergence herbicidal rating GLXMAW: 0.0
[2]; rate 0.0313 kg/ha
  Preemergence herbicidal rating GLXMAW: 0.0
[2]; rate 0.0625 kg/ha
  Preemergence herbicidal rating GLXMAW: 0.0
[2]; rate 0.1250 kg/ha
  Preemergence herbicidal rating GLXMAW: 1.0
[2]; rate 0.2500 kg/ha
  Preemergence herbicidal rating GLXMAW: 1.0
CASOB (Sicklepod); rate 0.0158 kg/ha
  CASOB herbicidal rating: 1.0
CASOB (Sicklepod); rate 0.0315 kg/ha
  CASOB herbicidal rating: 4.0
CASOB (Sicklepod); rate 0.0630 kg/ha
  CASOB herbicidal rating: 7.0
MOOVA (Monochoria); Rate 0.0313 kg/ha, rated 3 to 4 weeks after treatment
  Herbicidal rating MOOVA: 3.0
MOOVA (Monochoria); Rate 0.0625 kg/ha, rated 3 to 4 weeks after treatment
  Herbicidal rating MOOVA: 9.0
MOOVA (Monochoria); Rate 0.1250 kg/ha, rated 3 to 4 weeks after treatment
  Herbicidal rating MOOVA: 9.0
MOOVA (Monochoria); Rate 0.2500 kg/ha, rated 3 to 4 weeks after treatment
  Herbicidal rating MOOVA: 9.0
[3]; 0.0313 kg/ha
  SAGPY herbicidal effect rating: 0.0
[3]; 0.0625 kg/ha
  SAGPY herbicidal effect rating: 0.0
[3]; 0.1250 kg/ha
  SAGPY herbicidal effect rating: 0.0
[3]; 0.2500 kg/ha
  SAGPY herbicidal effect rating: 3.0
ORYSAT (Rice, Tebonnet); rate 0.0156 kg/ha
  Preemergence herbicidal rating ORYSAT: 0.0
ORYSAT (Rice, Tebonnet); rate 0.0313 kg/ha
  Preemergence herbicidal rating ORYSAT: 0.0
ORYSAT (Rice, Tebonnet); rate 0.0625 kg/ha
  Preemergence herbicidal rating ORYSAT: 0.0
ORYSAT (Rice, Tebonnet); rate 0.1250 kg/ha
  Preemergence herbicidal rating ORYSAT: 0.0
ORYSAT (Rice, Tebonnet); rate 0.2500 kg/ha
  Preemergence herbicidal rating ORYSAT: 1.0

## CCOC(=O)CN1C(=O)C2(CC2)SC1=Nc1cc(-n2c(=O)cc(C(F)(F)F)n(C)c2=O)c(F)cc1Cl [Compound 15, Ethyl 5-{{2-chloro-5-[3,6-dihydro-3-methyl-2,6-dioxo-4-(trifluoromethyl)-1(2H)-pyrimidinyl]-4-fluorophenyl}imino}-7-oxo-4-thia-6-azaspiro[2.4]-heptane-6-acetate]
[1]; rate 0.0156 kg/ha
  TRZAWR preemergence herbicidal rating: 0.0
[1]; rate 0.0313 kg/ha
  TRZAWR preemergence herbicidal rating: 0.0
[1]; rate 0.0625 kg/ha
  TRZAWR preemergence herbicidal rating: 0.0
[1]; rate 0.1250 kg/ha
  TRZAWR preemergence herbicidal rating: 5.0
[1]; rate 0.2500 kg/ha
  TRZAWR preemergence herbicidal rating: 5.0
[2]; rate 0.0156 kg/ha
  GLXMAW preemergence herbicidal rating: 0.5
[2]; rate 0.0313 kg/ha
  GLXMAW preemergence herbicidal rating: 0.5
[2]; rate 0.0625 kg/ha
  GLXMAW preemergence herbicidal rating: 1.0
[2]; rate 0.1250 kg/ha
  GLXMAW preemergence herbicidal rating: 2.5
[2]; rate 0.2500 kg/ha
  GLXMAW preemergence herbicidal rating: 5.5
CASOB (Sicklepod); rate 0.0156 kg/ha
  CASOB herbicidal rating: 0.0
CASOB (Sicklepod); rate 0.0313 kg/ha
  CASOB herbicidal rating: 0.0
CASOB (Sicklepod); rate 0.0625 kg/ha
  CASOB herbicidal rating: 0.0
CASOB (Sicklepod); rate 0.1250 kg/ha
  CASOB herbicidal rating: 4.0
MOOVA (Monochoria); rate 0.0313 kg/ha, 3-4 weeks after treatment
  Herbicidal rating MOOVA: 9.0
MOOVA (Monochoria); rate 0.0625 kg/ha, 3-4 weeks after treatment
  Herbicidal rating MOOVA: 9.0
MOOVA (Monochoria); rate 0.1250 kg/ha, 3-4 weeks after treatment
  Herbicidal rating MOOVA: 9.0
MOOVA (Monochoria); rate 0.2500 kg/ha, 3-4 weeks after treatment
  Herbicidal rating MOOVA: 9.0
[3]; 0.0313 kg/ha
  Herbicidal rating SAGPY: 0.0
[3]; 0.0625 kg/ha
  Herbicidal rating SAGPY: 0.0
[3]; 0.1250 kg/ha
  Herbicidal rating SAGPY: 0.0
[3]; 0.2500 kg/ha
  Herbicidal rating SAGPY: 0.0
ORYSAT (Rice, Tebonnet); rate 0.0156 kg/ha
  ORYSAT preemergence herbicidal rating: 0.0
ORYSAT (Rice, Tebonnet); rate 0.0313 kg/ha
  ORYSAT preemergence herbicidal rating: 0.0
ORYSAT (Rice, Tebonnet); rate 0.0625 kg/ha
  ORYSAT preemergence herbicidal rating: 0.5
ORYSAT (Rice, Tebonnet); rate 0.1250 kg/ha
  ORYSAT preemergence herbicidal rating: 1.0
ORYSAT (Rice, Tebonnet); rate 0.2500 kg/ha
  ORYSAT preemergence herbicidal rating: 1.5
